# Measured values: patent US8889704B2 (Array BioPharma Inc., priority 2011, dated 2014)
# Where a name gives a salt, the structure may show the parent alone.
# Columns and labels:
# Type in all cases: biochemical
# recombinant rat PIM-3 = recombinant rat PIM-3 (Rattus norvegicus, UniProt O70444); test: PIM-3 Assay (as Example A); details: averaged IC50; 30 μM ATP, 3.75 μM PIM2tide, 0.5 nM PIM-3
# Method in brief: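 Recombinant rat PIM-3 (0.5 nM) with 3.75 μM PIM2tide and 30 μM [γ-33P]ATP in MOPS pH 7.4 buffer, 60 min at 22 °C; labelled peptide captured on phosphocellulose filters and counted by scintillation. 10-point curve (top dose 10 μM, 2% DMSO); IC50 from 4-parameter fit of percent of control.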
# [1] = biological target: T1, GST-tagged recombinant full-length human Pim-2 (Homo sapiens, UniProt Q9P1W9); test: PIM-2 Assay (as Example A); details: averaged IC50; 4 μM ATP, 1.0 μM PIM2tide, 1.5 nM Pim-2
# T1 construct: GST-tagged recombinant full-length human Pim-2; GST
# Method in brief: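 Radiometric filter-binding assay: GST-tagged full-length human Pim-2 (1.5 nM) phosphorylates 1.0 μM PIM2tide with 4 μM [γ-33P]ATP for 60 min at 22 °C in pH 7.4 MOPS buffer, 2% DMSO. 10-point 3-fold dilutions from 10 μM top dose; IC50 from 4-parameter fit of percent of control.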
# PIM-1 = PIM-1 (Homo sapiens, UniProt P11309); test: Enzyme PIM-1 Assay ([33P]ATP incorporation into PIM2tide, filter plate); details: averaged IC50; 35 μM ATP, 7.5 μM PIM2tide, 0.25 nM PIM-1, 60 min at 22° C.
# Method in brief: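 Radiometric assay: 0.25 nM PIM-1 phosphorylates 7.5 μM PIM2tide with 35 μM [γ-33P]ATP in 20 mM MOPS pH 7.4, 10 mM MgCl2, 1 mM DTT, 0.005% Tween-20, 60 min at 22 °C. Product captured on P81 filters, scintillation counted; 10-point 3-fold curve from 10 μM top, 2% DMSO, IC50 by 4-parameter logistic fit of POC.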
# Chain of PIM-1 (P11309 whole entry, species assumed): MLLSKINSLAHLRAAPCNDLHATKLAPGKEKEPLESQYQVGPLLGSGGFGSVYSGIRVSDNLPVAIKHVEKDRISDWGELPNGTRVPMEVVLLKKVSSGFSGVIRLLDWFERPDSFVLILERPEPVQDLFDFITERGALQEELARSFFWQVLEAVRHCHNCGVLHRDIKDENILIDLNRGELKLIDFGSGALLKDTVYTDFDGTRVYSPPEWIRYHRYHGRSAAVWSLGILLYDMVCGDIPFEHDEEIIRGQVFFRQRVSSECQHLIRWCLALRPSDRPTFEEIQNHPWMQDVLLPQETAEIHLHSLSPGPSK
# T1 sequence (Q9P1W9 whole entry): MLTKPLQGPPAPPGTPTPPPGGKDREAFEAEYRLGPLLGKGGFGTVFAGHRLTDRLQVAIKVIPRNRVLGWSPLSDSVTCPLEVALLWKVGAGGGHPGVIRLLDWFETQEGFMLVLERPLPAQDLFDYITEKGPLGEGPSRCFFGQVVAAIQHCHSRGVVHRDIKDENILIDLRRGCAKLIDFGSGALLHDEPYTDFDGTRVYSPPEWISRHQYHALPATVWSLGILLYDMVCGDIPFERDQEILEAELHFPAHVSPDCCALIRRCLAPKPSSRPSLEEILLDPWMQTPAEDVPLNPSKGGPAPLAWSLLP
Compound,IC50 (recombinant rat PIM-3) [nM],IC50 [1] [nM],IC50 (PIM-1) [nM]
"CC(C)NC(=O)c1ccc2ccc(-c3nnc4ccc([C@H](N5CC[C@@H](N)C5)C(F)(F)F)cn34)nc2c1 [Example 52, 2-(6-((S)-1-((R)-3-aminopyrrolidin-1-yl)-2,2,2-trifluoroethyl)-[1,2,4]triazolo[4,3-a]pyridin-3-yl)-N-isopropylquinoline-7-carboxamide]",2,> 100,1.39
"CO[C@H](C)COc1cc2nc(-c3nnc4ccc([C@H](N5CC[C@](C)(N)C5)C(F)(F)F)cn34)ccc2cc1F [Example 324, (S)-3-methyl-1-((S)-2,2,2-trifluoro-1-(3-(6-fluoro-7-((R)-2-methoxypropoxy)quinolin-2-yl)-[1,2,4]triazolo[4,3-a]pyridin-6-yl)ethyl)pyrrolidin-3-amine di-hydrochloride]",0.21,44.6,0.18
"CC(C)(C)C(=O)Nc1ccc2ccc(-c3nnc4ccc([C@@H](N5CC[C@H](O)C5)C(F)(F)F)cn34)nc2c1 [Example 107, N-(2-(6-((R)-2,2,2-trifluoro-1-((S)-3-hydroxypyrrolidin-1-yl)ethyl)-[1,2,4]triazolo[4,3-a]pyridin-3-yl)quinolin-7-yl)pivalamide]",0.9,> 100,0.48
"CCC(C)(C)NC(=O)c1ccc2ccc(-c3nnc4ccc([C@@H](N5CC[C@@H](N)C5)C(F)(F)F)cn34)nc2c1 [Example 59, 2-(6-((R)-1-((R)-3-aminopyrrolidin-1-yl)-2,2,2-trifluoroethyl)-[1,2,4]triazolo[4,3-a]pyridin-3-yl)-N-tert-pentylquinoline-7-carboxamide dihydrochloride]",0.8,> 100,0.56
"N#Cc1ccc2ccc(-c3nnc4ccc([C@@H](N5CC[C@H](N)C5)C(F)(F)F)cn34)nc2c1 [Example 84, 2-(6-((R)-1-((S)-3-aminopyrrolidin-1-yl)-2,2,2-trifluoroethyl)-[1,2,4]triazolo[4,3-a]pyridin-3-yl)quinoline-7-carbonitrile]",12,> 100,0.73
"COc1cc2nc(-c3nnc4ccc([C@H](N5CC[C@H](N)C5)C(F)(F)F)cn34)ccc2cc1F [Example 136, (S)-1-((S)-2,2,2-trifluoro-1-(3-(6-fluoro-7-methoxyquinolin-2-yl)-[1,2,4]triazolo[4,3-a]pyridin-6-yl)ethyl)pyrrolidin-3-amine hydrochloride]",5,96,0.87
"FC(F)(F)[C@@H](c1ccc2nnc(-c3ccc4ccc(Br)cc4n3)n2c1)N1C[C@@H]2C[C@H]1CN2 [Example 68, 2-(6-((R)-1-(1S,4S)-2,5-diazabicyclo[2.2.1]heptan-2-yl)-2,2,2-trifluoroethyl)-[1,2,4]triazolo[4,3-a]pyridin-3-yl)-7-bromo quinoline dihydrochloride]",14,> 100,4.09
"COCCc1ccc2ccc(-c3nnc4ccc([C@@H](N5CC[C@H](N)C5)C(F)(F)F)cn34)nc2c1 [Example 269, (S)-1-((R)-2,2,2-trifluoro-1-(3-(7-(2-methoxyethyl)quinolin-2-yl)-[1,2,4]triazolo[4,3-a]pyridin-6-yl)ethyl)pyrrolidin-3-amine dihydrochloride]",2,413,0.37
"N[C@H]1CCN([C@H](c2ccc3nnc(-c4ccc5cc(F)c(C6CC6)cc5n4)n3c2)C(F)(F)F)C1 [Example 176, (S)-1-((R)-1-(3-(7-cyclopropyl-6-fluoroquinolin-2-yl)-[1,2,4]triazolo[4,3-a]pyridin-6-yl)-2,2,2-trifluoroethyl)pyrrolidin-3-amine dihydrochloride]",2.7,92,0.17
"CC(C)Oc1cc(F)cc2ccc(-c3nnc4ccc([C@@H](N5CC[C@H](NCCO)C5)C(F)(F)F)cn34)nc12 [Example 102, 2-((S)-1-((R)-2,2,2-trifluoro-1-(3-(6-fluoro-8-isopropoxyquinolin-2-yl)-[1,2,4]triazolo[4,3-a]pyridin-6-yl)ethyl)pyrrolidin-3-ylamino)ethanol dihydrochloride]",0.7,30,0.19
"N[C@H]1CCN([C@H](c2ccc3nnc(-c4ccc5cc(F)cc(C6CC6)c5n4)n3c2)C(F)(F)F)C1 [Example 177, (S)-1-((R)-1-(3-(8-cyclopropyl-6-fluoroquinolin-2-yl)-[1,2,4]triazolo[4,3-a]pyridin-6-yl)-2,2,2-trifluoroethyl)pyrrolidin-3-amine dihydrochloride]",1.7,> 100,0.31
"COc1cc2nc(-c3nnc4ccc([C@@H](N5CC(F)[C@H](N)C5)C(F)(F)F)cn34)ccc2cc1F (stereo partly drawn) [Example 162, (3R)-4-fluoro-1-((R)-2,2,2-trifluoro-1-(3-(6-fluoro-7-methoxyquinolin-2-yl)-[1,2,4]triazolo[4,3-a]pyridin-6-yl)ethyl)pyrrolidin-3-amine dihydrochloride]",35,> 100,1.24
"COC(C)(C)COc1cccc2ccc(-c3nnc4ccc([C@@H](N5CC[C@H](N)C5)C(F)(F)F)cn34)nc12 [Example 276, (S)-1-((R)-2,2,2-trifluoro-1-(3-(8-(2-methoxy-2-methylpropoxy)quinolin-2-yl)-[1,2,4]triazolo[4,3-a]pyridin-6-yl)ethyl)pyrrolidin-3-amine formate]",0.3,44,0.2
"CCOc1ccc2ccc(-c3nnc4ccc([C@H](N5CC[C@H](N)C5)C(F)(F)F)cn34)nc2c1 [Example 256, (S)-1-((S)-1-(3-(7-ethoxyquinolin-2-yl)-[1,2,4]triazolo[4,3-a]pyridin-6-yl)-2,2,2-trifluoroethyl)pyrrolidin-3-amine dihydrochloride]",1,199,0.58
"N[C@H]1CCN([C@H](c2ccc3nnc(-c4ccc5ccc(C6COC6)cc5n4)n3c2)C(F)(F)F)C1 [Example 316, (S)-1-((R)-2,2,2-trifluoro-1-(3-(7-(oxetan-3-yl)quinolin-2-yl)-[1,2,4]triazolo[4,3-a]pyridin-6-yl)ethyl)pyrrolidin-3-amine]",2.8,764,0.48
"CCOc1cc2nc(-c3nnc4ccc([C@@H](N5CC[C@](C)(N)C5)C(F)(F)F)cn34)ccc2cc1F [Example 247, (S)-1-((R)-1-(3-(7-ethoxy-6-fluoroquinolin-2-yl)-[1,2,4]triazolo[4,3-a]pyridin-6-yl)-2,2,2-trifluoroethyl)-3-methylpyrrolidin-3-amine dihydrochloride]",1.2,392,0.41
"C[C@@H](O)COc1cccc2ccc(-c3nnc4ccc([C@@H](N5CC[C@H](N)C5)C(F)(F)F)cn34)nc12 [Example 283, (R)-1-(2-(6-((R)-1-((S)-3-aminopyrrolidin-1-yl)-2,2,2-trifluoroethyl)-[1,2,4]triazolo[4,3-a]pyridin-3-yl)quinolin-8-yloxy)propan-2-ol formate]",0.7,194,0.18
"CC(C)Oc1cccc2ccc(-c3nnc4ccc([C@@H](N5C[C@@H](O)[C@H](O)C5)C(F)(F)F)cn34)nc12 [Example 72, (3R,4R)-1-((R)-2,2,2-trifluoro-1-(3-(8-isopropoxyquinolin-2-yl)-[1,2,4]triazolo[4,3-a]pyridin-6-yl)ethyl)pyrrolidine-3,4-diol]",2.9,> 100,0.19
"CO[C@@H](C)COc1cccc2ccc(-c3nnc4ccc([C@@H](N5CC[C@H](N)C5)C(F)(F)F)cn34)nc12 [Example 212, (S)-1-((R)-2,2,2-trifluoro-1-(3-(8-((S)-2-methoxypropoxy)quinolin-2-yl)-[1,2,4]triazolo[4,3-a]pyridin-6-yl)ethyl)pyrrolidin-3-amine dihydrochloride]",0.3,72,0.14
"CC(C)Oc1cccc2ccc(-c3nnc4ccc([C@H](N5CC[C@@](C)(N)C5)C(F)(F)F)cn34)nc12 [Example 90, (R)-3-methyl-1-((S)-2,2,2-trifluoro-1-(3-(8-isopropoxyquinolin-2-yl)-[1,2,4]triazolo[4,3-a]pyridin-6-yl)ethyl)pyrrolidin-3-amine dihydrochloride]",23,> 100,2.26
"COc1c(F)cc2ccc(-c3nnc4ccc([C@@H](N5CC[C@H](N)C5)C(F)(F)F)cn34)nc2c1F [Example 178, (S)-1-((R)-1-(3-(6,8-difluoro-7-methoxyquinolin-2-yl)-[1,2,4]triazolo[4,3-a]pyridin-6-yl)-2,2,2-trifluoroethyl)pyrrolidin-3-amine dihydrochloride]",19,> 100,1.81
"N[C@@H]1CCN([C@H](c2ccc3nnc(-c4ccc5cccc(OCC6CC6)c5n4)n3c2)C(F)(F)F)C1 (single isomer, unassigned) [Example 22]",2.9,145,0.25
